# Laboratory results taken from patent US20230404863A1, “MICRONEEDLE PATCH AND PREPARATION METHOD THEREFOR” (SUZHOU REVEDA MEDICAL BIOTECH CO., LTD., priority 2020, published 2023).
# Test: Stability of astaxanthin in patch vs aqueous solution (UV spectrophotometer, color)
# Format: physicochemical
# Conditions: room temperature
# Source text: Astaxanthin and resveratrol are easily oxidized and are very unstable in water and in emulsions. Due to immiscibility of resveratrol with water, it was first hydrophilically modified, and its stability in patches and that in solutions was compared. The patches were made of astaxanthin and the hydrophilically modified resveratrol, and the solutions were aqueous solutions of astaxanthin and the hydrophilically modified resveratrol at the same concentrations.
smiles,measurement,setting,value
CC1=C(/C=C/C(C)=C/C=C/C(C)=C/C=C/C=C(C)/C=C/C=C(C)/C=C/C2=C(C)C(=O)[C@@H](O)CC2(C)C)C(C)(C)C[C@H](O)C1=O [astaxanthin],Content of astaxanthin after 6 days vs the beginning,"in aqueous solution at the same concentration, without avoiding exposure to light",significantly lower than that at the beginning
same,Color of astaxanthin after 6 days,in aqueous solution,became much lighter
